Assay in all cases: DTP human tumour cell line panel, 48 h
Assay [1] concerns CAKI-1 renal.
Assay [2] concerns HL-60(TB) leukemia.
For assay [3], the system named is M14 melanoma.
Assay [4] concerns MALME-3M melanoma.
For assay [5], the system named is MDA-MB-435.
Assay [6] relates to OVCAR-3 ovarian.
Assay [7] deals with PC-3 prostate.
Assay [8] concerns SF-268 CNS.
Assay [9] concerns SK-MEL-28 melanoma.
Assay [10] has as its system SK-MEL-5 melanoma.
The subject of assay [11] is SNB-19 CNS.
Assay [12] concerns UACC-257 melanoma.
The test system of assay [13] is UACC-62 melanoma.
For assay [14], the system named is NCI-H226 lung.
Assay [15] deals with NCI-H23 lung.
In assay [16] the test system is HS 578T breast.

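Test compounds were applied to cells in 96-well plates for 48 hours at 5 doses. TGI: concentration producing complete growth inhibition.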 Where a SMILES comes first, the peptide text is derived from it. The star is where a group is joined. Boc = CC(C)(C)OC(=O)* Where only a bound is given, the exact number is not on record here.

The TGI is the concentration at which net growth stops. Low values mean greater sensitivity of the cells, high ones lower sensitivity of the cells.

With `CNC(=S)N/N=C(\C)c1cc(OC)c(OC)cc1O`, the TGI in assay [1], in assay [2], in assay [3], in assay [4], in assay [5] and in assay [6] was more than 100 µM in each case. In addition, the TGI in [7], in assay [8], in assay [9], in assay [10], in assay [11] and in [12] was more than 100 µM in each case. In [13], this compound yielded a TGI of more than 100 µM.

In the case of `CCCCN(CCCC)C1(c2cc3ccccc3s2)CCCCC1`, the TGI in assay [1] is 32.8 µM; in assay [2] it was 34.3 µM; in assay [3], 30.6 µM; in assay [5] it was 27.3 µM; in [14], 33.9 µM; in assay [15], 29.5 µM. Further, the TGI in assay [6] turned out to be 29.9 µM; in assay [7], 34.1 µM; in [8] it was 34 µM; in assay [9], 34.1 µM; in [10], 40.7 µM; in [11] it was 33.8 µM. Besides, the figures for the TGI in assay [12] and in assay [13] were 34 µM and 31.1 µM, respectively.

In the case of `CCOC(=O)C(=O)N=Nc1c(O)[nH]c2ccccc12`, the TGI in assay [1], in assay [3], in [4], in [5], in [14] and in assay [15] was more than 100 µM throughout. Also, the TGI in assay [7], in [8], in assay [9], in [10], in [11] and in assay [12] was more than 100 µM each time. The same compound showed a TGI in assay [13] of more than 100 µM.

For the compound `Cc1cc2c(=O)c3ccc(Cl)cc3[nH]c2c(C(=O)O)c1C`, the TGI in assay [1], in assay [3], in assay [4], in assay [14], in [15] and in [6] was more than 100 µM throughout. For the same compound, the TGI in assay [8], in [9], in assay [10], in assay [11], in assay [12] and in [13] was more than 100 µM each time.

With `N#CC(NNC(=O)Cc1ccccc1)c1ccc(O)cc1` (stereo not given), the TGI in assay [1], in assay [2], in [3], in assay [4], in assay [14] and in [15] was more than 100 µM throughout. Further, the TGI in assay [8], in [9], in assay [10], in assay [12] and in assay [13] was more than 100 µM each time.

In the case of `Nc1c2ccccc2nc2nccnc12`, the TGI in assay [1], in [2], in [3], in assay [4], in assay [14] and in [15] was more than 100 µM in each case. For the same compound, the TGI in assay [6], in assay [8], in [9], in [10], in [11] and in assay [12] was more than 100 µM in each case. This compound also yielded a TGI in [13] of more than 100 µM.

For the compound `CNC(=O)CNC(=O)C(NC(=O)CNC(=O)C1CCCN1C(=O)C(C)NC(=O)C(NC(=O)OC(C)(C)C)C(C)C)C(C)C` (stereo not given) (Boc-VAPGVG-NHMe; configuration not given here), the TGI in assay [1], in [2], in [3], in [4], in assay [5] and in assay [15] was more than 100 µM each time. In addition, the concentration for total growth inhibition (TGI) in assay [6], in assay [7], in [8], in [9], in assay [11] and in assay [12] was more than 100 µM each time. This compound also gave a TGI in assay [13] of more than 100 µM.

Regarding `O=C(CSc1nc(-c2ccccc2)c(-c2ccccc2)[nH]1)N/N=C/c1ccc([N+](=O)[O-])cc1`, the TGI in assay [2] came to 71.1 µM; in [3], 31.1 µM; in assay [4], 33.3 µM; in assay [14], 32.8 µM; in assay [15], 33.9 µM; in assay [6], 30 µM. Moreover, the TGI in assay [8] came to 39.2 µM; in assay [9] it was 31.2 µM; in [10], 31.1 µM; in assay [12], 36 µM.

As for `CC(=O)c1cc2sc3ccccc3c2[nH]1`, the TGI in assay [1], in assay [3], in assay [4], in [5], in assay [15] and in assay [6] was more than 100 µM throughout. For the same compound, the TGI in assay [7], in assay [8], in [9], in assay [10], in assay [11] and in assay [13] was more than 100 µM each time.

As to `CC(=O)OC12c3ccccc3C(c3ccccc31)C1C(=O)N(Nc3ccccc3)C(=O)C12` (stereo not given), the TGI in assay [1], in [2], in assay [16], in [3], in assay [4] and in [14] was more than 100 µM each time. The TGI in assay [15], in assay [6], in [7], in [8], in assay [9] and in assay [10] was more than 100 µM throughout. Moreover, the TGI in assay [11] and in [12] was more than 100 µM throughout.
